Legend:
Webster mice = experiment: acute oral toxicity (LD50) in Webster mice; type: in vivo; details: from LD50
Source text: (§1) As stated above, a particular advantage of the builders of the present invention over the salts of unsubstituted oxydiacetic acid, is their lower toxicity. For example, using Webster mice, the acute oral toxicity data, (LD50), i.e., the dosage in grams per kilogram of body weight which is lethal for 50% of the mice, for two of the preferred embodiments compared to disodium oxydiacetate are as follows: […]

[1] = acute oral toxicity (LD50) in Webster mice; type: in vivo; details: mouse, in vivo, read-out: LD50 (dosage which is lethal for 50% of the mice)
Source text: as §1

[2] = if accidentally swallowed; cited from earlier work

| Compound | Remarks (toxicity classification) (Webster mice) | LD50 [1] | emetic properties [2] |
| --- | --- | --- | --- |
| CC(OCC(=O)[O-])C(=O)[O-].[Na+].[Na+] (stereo not shown) | non-toxic | > 5000 mg/kg |  |
| CC(OC(C)C(=O)[O-])C(=O)[O-].[Na+].[Na+] (stereo not shown) | non-toxic | > 5000 mg/kg |  |
| O=C([O-])COCC(=O)[O-].[Na+].[Na+] [reference compound] | slightly toxic | 2850 mg/kg |  |
| trisodium polyphosphate |  |  | emetic properties |

— patent publication US4382871A, “Detergent compositions” (Lever Brothers Company, priority 1980, dated 1983)
